# Measurements taken from ChEMBL document CHEMBL1144900, “Synthesis and SAR of thrombin inhibitors incorporating a novel 4-amino-morpholinone sscaffold: analysis of X-ray crystal structure of enzyme inhibitor complex” (J Med Chem, 2003).
# Target: Prothrombin (Homo sapiens, UniProt P00734)
# Assay: Inhibitory activity against human thrombin
row,IC50 [µM],SMILES
1,0.13,COc1ccc(OC)c(S(=O)(=O)NN2CCOC(CC(=O)NCc3ccc(C(=N)N)cc3)C2=O)c1 (stereo not given)
2,54.7,CC(C)(C)OC(=O)NN1CCO[C@H](CC(=O)NCc2ccc(C(=N)N)cc2)C1=O
3,34.4,N=C(N)c1ccc(CNC(=O)CC2OCCN(Nc3ccccc3)C2=O)cc1 (stereo not given)
4,35.6,N=C(N)c1ccc(CNC(=O)C[C@H]2OCCN(NCCc3ccccc3)C2=O)cc1
5,37.7,N=C(N)c1ccc(CNC(=O)C[C@H]2OCCN(NS(=O)(=O)c3ccccc3)C2=O)cc1
6,10.6,N=C(N)c1ccc(CNC(=O)C[C@@H]2OCCN(NCc3ccccc3)C2=O)cc1
7,106,N=C(N)c1ccc(CNC(=O)C[C@H]2OCCN(NC(=O)c3ccccc3)C2=O)cc1
8,36.2,N=C(N)c1ccc(CNC(=O)C[C@H]2OCCN(N(CCCc3ccccc3)CCCc3ccccc3)C2=O)cc1
9,150,N=C(N)c1ccc(CNC(=O)C[C@H]2OCCN(NC(=O)c3ccc(N)cc3)C2=O)cc1
10,8.14,N=C(N)c1ccc(CNC(=O)CC2OCCN(NS(=O)(=O)c3ccc(F)cc3F)C2=O)cc1 (stereo not given)
11,0.486,N=C(N)c1ccc(CNC(=O)CC2OCCN(NS(=O)(=O)c3ccc4c(c3)CCO4)C2=O)cc1 (stereo not given)
12,19.8,N=C(N)c1ccc(CNC(=O)CC2OCCN(N(Cc3ccccc3)Cc3ccccc3)C2=O)cc1 (stereo not given)
13,0.961,Cc1ccc(CCNN2CCOC(CC(=O)NCc3ccc(C(=N)N)cc3)C2=O)cc1 (stereo not given)
14,4.88,N=C(N)c1ccc(CNC(=O)CC2OCCN(Nc3ccc(-c4ccccc4)cc3)C2=O)cc1 (stereo not given)
15,13.6,N=C(N)c1ccc(CNC(=O)C[C@H]2OCCN(NCc3ccccc3)C2=O)cc1
16,0.164,Cc1cc(S(=O)(=O)NN2CCOC(CC(=O)NCc3ccc(C(=N)N)cc3)C2=O)c(C)cc1Cl (stereo not given)
17,4.74,N=C(N)c1ccc(CNC(=O)C[C@@H]2OCCN(NCCCc3ccccc3)C2=O)cc1
18,0.247,Cc1ccc(C)c(S(=O)(=O)NN2CCOC(CC(=O)NCc3ccc(C(=N)N)cc3)C2=O)c1 (stereo not given)
19,45.4,N=C(N)c1ccc(CNC(=O)C[C@H]2OCCN(NCCCc3ccccc3)C2=O)cc1
20,> 32,N=C(N)c1ccc(CNC(=O)CC2OCCN(Nc3cccc(N)c3)C2=O)cc1 (stereo not given)
21,9.15,N=C(N)c1ccc(CNC(=O)C[C@@H]2OCCN(NS(=O)(=O)Cc3ccccc3)C2=O)cc1
22,36.8,N=C(N)c1ccc(CNC(=O)C[C@H]2OCCN(NS(=O)(=O)Cc3ccccc3)C2=O)cc1
23,> 133,N=C(N)c1ccc(CNC(=O)C[C@H]2OCCN(NCC(=O)c3ccccc3)C2=O)cc1
24,1.79,N=C(N)c1ccc(CNC(=O)C[C@@H]2OCCN(NCCc3ccccc3)C2=O)cc1
25,80.6,CC(C)OC(=O)NN1CCO[C@H](CC(=O)NCc2ccc(C(=N)N)cc2)C1=O
